{"source": "patent US9944749B2", "about": "“Polycarbonates” (Valspar Sourcing, Inc., priority 2012, dated 2018)", "key": {"human estrogen receptor": {"target": "T1, human estrogen receptor (Homo sapiens, UniProt P03372)", "T1 sequence (P03372 1-595)": "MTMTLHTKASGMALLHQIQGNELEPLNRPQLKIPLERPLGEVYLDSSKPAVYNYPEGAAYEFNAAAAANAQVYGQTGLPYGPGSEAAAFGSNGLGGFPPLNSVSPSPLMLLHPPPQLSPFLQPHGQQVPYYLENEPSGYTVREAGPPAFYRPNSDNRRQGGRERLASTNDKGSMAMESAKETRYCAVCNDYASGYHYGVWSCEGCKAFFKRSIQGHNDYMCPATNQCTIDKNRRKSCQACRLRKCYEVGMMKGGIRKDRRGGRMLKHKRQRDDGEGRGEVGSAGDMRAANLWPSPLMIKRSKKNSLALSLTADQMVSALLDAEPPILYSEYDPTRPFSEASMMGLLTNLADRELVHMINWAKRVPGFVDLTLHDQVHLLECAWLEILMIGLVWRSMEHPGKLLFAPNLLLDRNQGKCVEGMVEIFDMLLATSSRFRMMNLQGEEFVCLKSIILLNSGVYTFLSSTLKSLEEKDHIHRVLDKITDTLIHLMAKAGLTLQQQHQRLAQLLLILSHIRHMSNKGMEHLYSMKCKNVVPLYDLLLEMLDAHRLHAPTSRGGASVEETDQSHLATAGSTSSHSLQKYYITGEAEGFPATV", "assay": "suitable in vitro assay whose results are directly correlated to the MCF-7 cell proliferation assay", "assay_type": "cell-based", "conditions": "in vitro assay correlated to MCF-7 assay through common reference compounds"}, "MCF-7, clone WS8, cells": {"tested_on": "MCF-7, clone WS8, cells", "assay": "MCF-7 cell proliferation assay of estrogenic activity", "assay_type": "cell-based, human"}}, "note": "Read-outs that look alike come from different tables or passages of the source.", "data": [{"compound": "CC(C)(C)c1cc(Cc2cc(C(C)(C)C)c(O)c(C(C)(C)C)c2)cc(C(C)(C)C)c1O", "note": "[Structure 8, 4,4′-methylenebis(2,6-di-t-butylphenol)]", "values": [{"measurement": "estrogenic activity", "setting": "human estrogen receptor", "result": "do not exhibit appreciable estrogenic activity"}]}, {"compound": "C[C@]12CC[C@@H]3c4ccc(O)cc4CC[C@H]3[C@@H]1CC[C@@H]2O", "note": "[17β-estradiol]", "values": [{"measurement": "Log RPE", "setting": "MCF-7, clone WS8, cells; logarithmic (base 10) Relative Proliferative Effect relative to 17-beta estradiol, cell proliferation measured as total DNA, values 'expected or measured'", "result": 2.00}]}, {"compound": "Cc1cc(Cc2cc(C)cc(C(C)(C)C)c2O)c(O)c(C(C)(C)C)c1", "note": "[Structure 9]", "values": [{"measurement": "estrogenic activity", "setting": "human estrogen receptor", "result": "do not exhibit appreciable estrogenic activity"}]}, {"compound": "Oc1ccc(Cc2ccc(O)cc2)cc1", "note": "[Bisphenol F]", "values": [{"measurement": "Log RPE", "setting": "MCF-7, clone WS8, cells", "result": "−2"}]}, {"compound": "CCCC(c1cc(C(C)(C)C)c(O)cc1C)c1cc(C(C)(C)C)c(O)cc1C", "note": "[Structure 7, 4,4′-butylidenebis(2-t-butyl-5-methylphenol)]", "values": [{"measurement": "estrogenic activity", "setting": "human estrogen receptor", "result": "do not exhibit appreciable estrogenic activity"}]}, {"compound": "Cc1cc(Cc2cc(C)c(O)c(C)c2)cc(C)c1O", "note": "[Structure 6, 4,4′-methylenebis(2,6-dimethylphenol)]", "values": [{"measurement": "estrogenic activity", "setting": "human estrogen receptor", "result": "do not exhibit appreciable estrogenic activity"}]}, {"compound": "CC(C)(C)c1cc(O)c(C(C)(C)C)cc1O", "note": "[Structure 12, 2,5-di-t-butylhydroquinone]", "values": [{"measurement": "estrogenic activity", "setting": "human estrogen receptor", "result": "do not exhibit appreciable estrogenic activity"}]}]}
